Reference: patent US20160367556A1, “Therapeutic Agent for Ocular Disease or Prophylactic Agent for Ocular Disease” (Japan Tobacco Inc., priority 2013, published 2016)

System: VEGF-induced retinal vascular permeability
Experiment: Retinal vascular permeability suppression by oral administration in rat model where VEGF-induced retinal vascular permeability was increased
Assay type: in vivo
Conditions: oral 10, 30 or 100 mg/kg; vitreous protein 24 hours after intravitreal rat VEGF164 400 ng/eye; FIG. 1
Protocol: Experiment 1. Retinal vascular permeability suppression by oral administration of Compound A in rat model where VEGF-induced retinal vascular permeability was increased A rat model where VEGF-induced retinal vascular permeability was increased was used to evaluate the ability of suppressing an increase of the retinal vascular permeability by Compound A. The animal model was prepared with appropriate modifications based on Non-Patent Literature 3, etc. As experimental animals, male Brown Norway rats aged 8 weeks {CHARLES RIVER LABORATORIES JAPAN, INC.} were used. Inside the vitreous body of each eye of rats, rat VEGF164 {400 ng/eye, R&D Systems, Inc.} was injected <VEGF-administered group>. Inside the vitreous body of each eye of rats in a normal control group, D-PBS (-) {Sigma-Aldrich Corporation} was intravitreally injected. Each group included four rats <eight eyeballs>. […] The protein concentration in the sampled vitreous body was determined by the Bradford method. The rate of suppressing an increase of the retinal vascular permeability was calculated according to the following equation X. Rate of suppressing increase of retinal vascular permeability (%)=(PB-PX)/(PB-PA)×100 [Equation X] […]

Q: For `C[C@H]1CN(C(=O)CC#N)[C@]12CCN(c1ncnc3[nH]ccc13)C2` [Compound A, 3-[(3S,4R)-3-Methyl-6-(7H-pyrrolo[2,3-d]pyrimidin-4-yl)-1,6-diazaspiro[3.4]octan-1-yl]-3-oxopropanenitrile], which “suppression of retinal vascular permeability” value is on record?
A: The value was “suppression of retinal vascular permeability”.
